The values below come from patent US8580795B2, “Heterocyclic compounds as phosphodiesterase inhibitors” (Orchid Chemicals & Pharmaceuticals Limited, priority 2009, dated 2013).

For assay [1], the system named is TNF-α. Briefly: LPS induced sepsis for measurement of TNF-α inhibition in mice. It counts as in vivo, Female Swiss albino mice. As to conditions: 10 mg/kg oral, 30 min before LPS i.p., serum 90 min after LPS. Here is the method: LPS Induced Sepsis for Measurement of TNF-α Inhibition in Mice:
The LPS induced sepsis model in mice was performed as described by Les sekut et al (J Lab Clin Med 1994; 124, 813-20). Female Swiss albino mice were selected and the body weights were equivalent within each group. The mice were fasted for 20 h with free access to water. The mice were dosed orally with the test compound suspended in vehicle containing 0.5% Tween 80 in 0.25% Carboxy-methylcellulose sodium salt. The control mice were administered the vehicle alone. After 30 minutes of oral dosing, mice were injected with 500 μg of Lipopolysaccharide (Escherichia coli, LPS: B4 from Sigma) in phosphate buffer saline solution into the intraperitoneal cavity of the mice. After 90 minutes of LPS administration mice were bled via retro-orbital sinus puncture. Blood samples were stored overnight at 4° C. Serum samples were collected by centrifuging the samples at 4000 rpm for 15 minutes at 4° C. Immediately the serum samples were analysed for TNF-α levels using commercially available mouse TNF-α ELISA kit (Amersham Biosciences) and assay was performed by the manufacturer instruction.

Assay [2] addresses human PDE4B enzyme (PDE4B2) (Homo sapiens, UniProt Q07343). Briefly: Phosphodiesterase 4 screening assay (SPA, [3H]-cAMP). The class given is biochemical. As to conditions: 100 nM compound; 0.5 μM cAMP. The protocol:
Phosphodiesterase 4 Screening Assay:
PDE4 (Phosphodiesterase type IV) enzymes convert cyclic AMP (cAMP) into AMP. The assay is performed to determine the effect of test compounds on the inhibition of purified human PDE4B enzyme.
The assay involves the detection of the Tritiated AMP (product) using SPA beads known as yittrium silicate. The linear AMP bind preferentially to SPA yittrium silicate beads compared to cyclic nucleotides in the presence of zinc sulphate. The binding of the radiolabelled product to the bead brings the isotope into close proximity to allow radiation from the tritium to excite the scintillant within the bead to emit light. The unbound radiolabel is not close enough to allow this energy transfer and the light emitted due to the binding of tritiated AMP is detected as cpm (counts per minute).
PDE Activity (SPA Based Assay Protocol):
PDE4B activity was inhibited by the compounds according to the invention in a modified SPA (scintillation proximity assay) test, supplied by GE Healthcare Life Sciences (see procedural instructions “Phosphodiesterase [^3H]-cAMP SPA enzyme assay, code TRKQ 7090”), carried out in 96-well microtitre plates. The test volume is 100 μL and contains 50 mM Tris buffer (pH 7.4), 8.3 mM Mg^2+, in the presence of inhibitor or test compound, and containing PDE4B2 enzyme (sufficient to ensure that 10-20% of the cAMP is converted, under the said experimental conditions). […] After a pre-incubation of 5 minutes at 37° C., the reaction is started by adding the substrate (cAMP; 0.5 μM cAMP, including about 50,000 cpm of [^3H]-cAMP) and the assays are incubated for a further 10 minutes; after that, they are stopped by adding SPA beads containing 18 mM ZnSO4 (50 μl). After the beads have been sedimented (>30 minutes), the microtitre plates are analyzed in a Microplate luminescence detection device (TopCount* NXT; PerkinElmer Life Sciences). Where, the signal in the absence of enzyme is defined as the background. 100% activity was defined as the signal detected in the presence of enzyme and DMSO with the background subtracted. The corresponding IC50 values of the compounds for the inhibition of PDE4B2 activity are determined from the concentration-effect curves by means of non-linear regression fit of the standard 4-parameter/multiple binding sites equation from a eight- to ten-point titration. (Catherine B. et al. Anal. Biochem., 1999, 275(2), pp. 148-155, David M. E. Biochem. Pharmacol., 1999, 57, pp. 965-973)

In assay [3] the test system is TNF-α. Briefly: In vitro measurement of TNF-α production in LPS-stimulated human PBMC (ELISA). It counts as cell-based. To be noted: 100 nM compound, LPS 1 μg/mL, 18 h, NA: Not active. Here is the method: Biological Activity In Vitro Measurement of Tumor Necrosis Factor Alpha (TNF-α):
This assay determines the effect of test compounds on the production of TNF-α in human Peripheral Blood Mononuclear Cells (PBMC). Compounds were tested for their ability to inhibit the activity of TNF α in human PBMC. PBMC were isolated from blood (of healthy volunteers) using BD Vacutainer CPT™ (Cell preparation tube, BD Bio Science) and suspended in RPMI (Rosewell park memorial institute) medium (Physiol. Res. 2003, 52, 593-598). The test compounds were pre-incubated with PBMC (0.5 million/incubation well) for 15 minutes at 37° C. and then stimulated with Lipopolysaccharide (Escherichia coli: B4; 1 μg/mL) for 18 h at 37° C. in 5% CO2. The levels of TNF-α in the cell culture medium were estimated using enzyme-linked immunosorbent assay performed in a 96 well format as per the procedure of the manufacturer (Cayman Chemical, Ann Arbor, USA).

Another assay deals with LPS induced neutrophilia. The experiment in a line: LPS induced neutrophilia model for asthma and COPD. As to conditions: rats, BAL 6 h after LPS exposure. It counts as in vivo, Male Sprague Dawley rats. Here is the method: LPS Induced Neutrophilia Model for Asthma and COPD:
LPS induced neutrophilia in Sprague Dawley rats was performed using the protocol described in Pulm Pharmacol & Ther 17,133-140, 2004. Male Sprague. Dawley rats were acclimatized to laboratory conditions five to seven days prior to the start of the experiment. They were randomly distributed to various groups based on body weight. Except normal group all the animals were exposed to LPS 100 μg/ml for 40 minutes. The rats were dosed with the test compound suspended in the vehicle containing 0.25% carboxymethylcellulose before half an hour of LPS exposure. BAL was performed 6 h after LPS exposure, total cell count and DLC was done and compared with control and the standard drug.

SMILES strings stand for the structures.

Chain of human PDE4B enzyme (PDE4B2) (Q07343 1-564 isoform Q07343-2): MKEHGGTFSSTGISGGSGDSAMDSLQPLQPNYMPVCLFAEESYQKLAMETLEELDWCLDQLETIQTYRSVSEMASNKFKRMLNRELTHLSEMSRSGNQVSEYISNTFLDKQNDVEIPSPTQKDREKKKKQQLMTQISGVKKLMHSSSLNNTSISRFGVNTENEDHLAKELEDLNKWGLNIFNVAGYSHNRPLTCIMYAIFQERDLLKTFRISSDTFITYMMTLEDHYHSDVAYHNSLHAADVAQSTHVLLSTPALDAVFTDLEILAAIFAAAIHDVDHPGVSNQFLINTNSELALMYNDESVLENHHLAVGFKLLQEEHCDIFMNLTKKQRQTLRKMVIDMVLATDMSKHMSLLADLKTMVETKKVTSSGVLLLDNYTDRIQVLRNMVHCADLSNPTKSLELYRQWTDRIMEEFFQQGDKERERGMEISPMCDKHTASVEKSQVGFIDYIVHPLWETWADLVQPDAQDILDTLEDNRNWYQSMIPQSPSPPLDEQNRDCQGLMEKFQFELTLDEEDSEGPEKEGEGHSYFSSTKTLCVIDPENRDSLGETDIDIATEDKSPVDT

With `COc1ccc(-c2nc(CCC(=O)Nc3c(Cl)cncc3Cl)cs2)c2c1oc1ccccc12` [Example 11, N-(3,5-Dichloropyridin-4-yl)-3-(2-(4-methoxydibenzo[b,d]furan-1-yl)-1,3-thiazol-4-yl)propanamide], the “TNF-α Inhibition (%)” value with TNF-α [1] was 46.70%. The inhibition (commonly how much of the control response was suppressed) at 0.1 µM in assay [2] turned out to be 32.8%.
For the molecule `COc1ccc(-c2nc(C(=O)Nc3c(Cl)cncc3Cl)cs2)c2c1oc1ccccc12` [Example 13, N-(3,5-Dichloropyridin-4-yl)-2-(4-methoxydibenzo[b,d]furan-1-yl)-1,3-thiazole-4-carboxamide], the “TNF-α Inhibition (%)” value in the assay with TNF-α [1] came out at 37.83%. The inhibition at 0.1 µM in the assay with TNF-α [3] is 26.1%; in assay [2] it was 70.3%.
`O=C(Nc1c(Cl)cncc1Cl)c1csc(-c2ccc(OC(F)F)c3oc4ccccc4c23)n1` [Example 14, N-(3,5-dichloropyridin-4-yl)-2-(4-(difluoromethoxy)dibenzo[b,d]furan-1-yl)-1,3-thiazole-4-carboxamide]: the “TNF-α Inhibition (%)” value in the assay with TNF-α [1] stood at 40.67%. For the same molecule, the inhibition at 0.1 µM with TNF-α [3] was 14.5%; in assay [2], 42.3%.
In the case of `COc1ccc(-c2nc(C(N)=O)cs2)c2c1oc1ccccc12` [Example 25, 2-(4-Methoxydibenzo[b,d]furan-1-yl)-1,3-thiazole-4-carboxamide], the inhibition at 0.1 µM in the assay on TNF-α [3] worked out at 35.5%; in assay [2], 15.4%.
Take `COc1ccc(-c2nc(C(=O)Nc3c(Cl)cncc3Cl)c(C)s2)c2c1oc1ccccc12` [Example 28, N-(3,5-Dichloropyridin-4-yl)-2-(4-methoxydibenzo[b,d]furan-1-yl)-5-methyl-1,3-thiazole-4-carboxamide]: the inhibition at 0.1 µM in the assay on TNF-α [3] turned out to be 0.88%.
On the same count and under the same terms, the same measure for `CCNC(=O)c1nc(-c2ccc(OC)c3oc4ccccc4c23)sc1C` [Example 29, N-Ethyl-2-(4-methoxydibenzo[b,d]furan-1-yl]-5-methyl-1,3-thiazole-4-carboxamide]: 18.4%; for `COc1ccc(-c2nc(C(=O)NN3CCOCC3)cs2)c2c1oc1ccccc12` [Example 30, 2-(4-Methoxydibenzo[b,d]furan-1-yl)-N-morpholino-1,3-thiazole-4-carboxamide]: 21.9%.
Same read-out and setting: the same measure for `COc1ccc(-c2nc(C(=O)NC3CCC(O)CC3)cs2)c2c1oc1ccccc12` (stereo not shown) [Example 31, N-(4-Hydroxycyclohexyl)-2-(4-methoxydibenzo[b,d]furan-1-yl)-1,3-thiazole-4-carboxamide]: 63.1%.
On the same count and under the same terms, the same measure for `CS(=O)(=O)Nc1ccc2oc3c(OC(F)F)ccc(-c4nc(C(=O)Nc5c(Cl)cncc5Cl)cs4)c3c2c1` [Example 34]: 25.1%.
`Cc1sc(-c2ccc(OC(F)F)c3oc4ccc(NS(C)(=O)=O)cc4c23)nc1C(=O)NC1CCC(O)CC1` (stereo not shown) [Example 35, 2-(4-(Difluoromethoxy)-8-(methylsulfonamido)dibenzo[b,d]furan-1-yl)-N-(4-hydroxycyclohexyl)-5-methyl-1,3thiazole-4-carboxamide]: the “LPS induced neutrophilia % inhibition” value in the assay with LPS induced neutrophilia (Dose 10 mg/kg) is 19.29%. The inhibition at 0.1 µM in the assay on TNF-α [3] is 61.8%.
`CC(=O)Nc1ccc2oc3c(OC(F)F)ccc(-c4nc(C(=O)O)cs4)c3c2c1` [Example 36, 2-[8-(Acetylamino)-4-(difluoromethoxy)dibenzo[b,d]furan-1-yl]-1,3-thiazole-4-carboxylic acid] registered an inhibition at 0.1 µM in the assay on TNF-α [3] of 15.5%.
Still for that read-out and setting: the same measure for `CONC(=O)c1nc(-c2ccc(OC(F)F)c3oc4ccc(NS(C)(=O)=O)cc4c23)sc1C` [Example 37, 2-(4-(Difluoromethoxy)-8-(methylsulfonamido)dibenzo[b,d]furan-1-yl)-N-methoxy-5-methyl-1,3-thiazole-4-carboxamide]: 35.4%.
Turning to `CC(=O)Nc1ccc2oc3c(OC(F)F)ccc(-c4nc(C(=O)NC5CCC(O)CC5)cs4)c3c2c1` (stereo not shown) [Example 38, 2-(8-Acetamido-4-(difluoromethoxy)dibenzo[b,d]furan-1-yl)-N-(4-hydroxycyclohexyl)-1,3-thiazole-4-carboxamide], the “LPS induced neutrophilia % inhibition” value in the assay with LPS induced neutrophilia (Dose 5 mg/kg) stood at 35.68%. In the assay on TNF-α [3], this molecule returned an inhibition at 0.1 µM of 83.4%.
For `O=C(NC1CCC(O)CC1)c1csc(-c2ccc(OC(F)F)c3oc4ccccc4c23)n1` (stereo not shown) [Example 39, 2-((4-Difluoromethoxy)dibenzo[b,d]furan-1-yl)-N-(4-hydroxycyclohexyl)-1,3-thiazole-4-carboxamide], in the assay with LPS induced neutrophilia (Dose 10 mg/kg), the “LPS induced neutrophilia % inhibition” value was 57.98%. Also, the inhibition at 0.1 µM in the assay on TNF-α [3] is 77.7%.
With `O=C(NCC(F)(F)F)c1csc(-c2ccc(OC(F)F)c3oc4ccccc4c23)n1` [Example 40, 2-((4-Difluoromethoxy)dibenzo[b,d]furan-1-yl)-N-(2,2,2-trifluoroethyl)-1,3-thiazole-4-carboxamide], the inhibition at 0.1 µM in the assay with TNF-α [3] worked out at 26.7%.
In the assay with TNF-α [3], `CONC(=O)c1csc(-c2ccc(OC(F)F)c3oc4ccccc4c23)n1` [Example 42, 2-((4-Difluoromethoxy)dibenzo[b,d]furan-1-yl)-N-methoxy-1,3-thiazole-4-carboxamide] registered an inhibition at 0.1 µM of 8.5%.
On the same count and under the same terms, to `O=C(NC1CCC(O)CC1)c1csc(-c2ccc(OC(F)F)c3oc4ccc(C(F)(F)F)cc4c23)n1` (stereo not shown) [Example 44, 2-(4-(Difluoromethoxy)-8-(trifluoromethyl)dibenzo[b,d]furan-1-yl)-N-(4-hydroxycyclohexyl)-1,3-thiazole-4-carboxamide] belongs 17.2%; to `CS(=O)(=O)Nc1ccc2oc3c(OC(F)F)ccc(-c4nc(C(=O)NC5CCC(O)CC5)cs4)c3c2c1` (stereo not shown) [Example 46, 2-(4-(Difluoromethoxy)-(methylsulfonamido)dibenzo[b,d]furan-1-yl)-N-(4-hydroxycyclohexyl)-1,3-thiazole-4-carboxamide], 78.6%.
As to `CS(=O)(=O)Nc1ccc2oc3c(OC(F)F)ccc(-c4nc(C(=O)N[C@H]5CC[C@H](O)CC5)co4)c3c2c1` [Example 50, 2-(4-(Difluoromethoxy)-8-(methylsulfonamido)dibenzo[b,d]furan-1-yl)-N-(4-hydroxycyclohexyl)-1,3-oxazole-4-carboxamide], the “TNF-α Inhibition (%)” value in the assay with TNF-α [1] is reported as 13.15%.
